Measurements published in ChEMBL document CHEMBL1201862, “PubChem BioAssay data set” (2004).
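Results reflect a 48-hour exposure of cells in 96-well plates to compound at five concentrations. Here, GI50 denotes the concentration required for 50% inhibition of growth.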 Active and inactive are the calls of the source. No stated cut-off is given here; in the data, active = GI50 up to about 1.1 µM and inactive = higher.

Experiments:
Experiment in all cases: inhibition of tumour cell growth, NCI panel, 48 h
TK-10 = test system: TK-10
PC-3 = test system: PC-3
MOLT-4 = test system: MOLT-4
A498 = test system: A498
DU-145 = test system: DU-145
KM12 = test system: KM12
LOX IMVI = test system: LOX IMVI
SK-MEL-28 = test system: SK-MEL-28
SF-295 = test system: SF-295
NCI-H23 = test system: NCI-H23
NCI-H460 = test system: NCI-H460
NCI-H226 = test system: NCI-H226
HOP-62 = test system: HOP-62
UACC-62 = test system: UACC-62
HL-60 = test system: HL-60
HCC 2998 = test system: HCC 2998
IGROV-1 = test system: IGROV-1
NCI-H522 = test system: NCI-H522
CAKI-1 = test system: CAKI-1
RXF 393 = test system: RXF 393

Measured: GI50

O=C1C(c2ccccc2)=[N+]([O-])c2ccccc21
inactive: TK-10 20 µM | PC-3 11.6 µM | MOLT-4 21.6 µM | A498 17.9 µM | DU-145 15.7 µM | KM12 19.8 µM | LOX IMVI 3.35 µM | SK-MEL-28 17.1 µM | SF-295 17.4 µM | NCI-H23 19.4 µM | NCI-H460 16.5 µM | NCI-H226 17.1 µM | HOP-62 18.7 µM | UACC-62 15.5 µM | HL-60 14.9 µM | HCC 2998 20 µM

COc1cc2[nH]c(=O)c3cc(C)cc4c(Cl)nc(c1OC)c2c43
inactive: TK-10 31.2 µM | PC-3 > 100 µM | MOLT-4 42.8 µM | IGROV-1 67.8 µM | DU-145 61.8 µM | NCI-H522 36.3 µM | KM12 96.6 µM | CAKI-1 56.2 µM | LOX IMVI 53.2 µM | SK-MEL-28 > 100 µM | SF-295 43.7 µM | RXF 393 21 µM | NCI-H23 85.5 µM | NCI-H460 23.4 µM | NCI-H226 45.7 µM | HOP-62 23.6 µM | UACC-62 28.3 µM | HL-60 18.8 µM | HCC 2998 > 100 µM

CC(=O)Oc1cc(S(=O)(=O)Nc2nc(N)n[nH]2)c(S)cc1Cl
inactive: TK-10 > 100 µM | PC-3 > 100 µM | MOLT-4 > 100 µM | IGROV-1 > 100 µM | A498 > 100 µM | DU-145 > 100 µM | NCI-H522 > 100 µM | KM12 > 100 µM | CAKI-1 > 100 µM | LOX IMVI > 100 µM | SK-MEL-28 > 100 µM | SF-295 > 100 µM | NCI-H23 > 100 µM | NCI-H460 > 100 µM | HOP-62 > 100 µM | UACC-62 > 100 µM | HL-60 > 100 µM | HCC 2998 > 100 µM

O=C(O)c1ccccc1CC1Cc2cc3c(cc2C1)CCC3
inactive: TK-10 > 100 µM | MOLT-4 > 100 µM | IGROV-1 > 100 µM | A498 > 100 µM | DU-145 > 100 µM | NCI-H522 > 100 µM | KM12 > 100 µM | LOX IMVI > 100 µM | SK-MEL-28 > 100 µM | SF-295 > 100 µM | RXF 393 89.1 µM | NCI-H23 49.5 µM | NCI-H460 > 100 µM | NCI-H226 > 100 µM | HOP-62 > 100 µM | UACC-62 92.3 µM | HL-60 > 100 µM | HCC 2998 > 100 µM

O=c1c2ccccc2nc(Nc2cccc(Cl)c2)n1/N=C/C=C/c1ccccc1
inactive: TK-10 > 100 µM | PC-3 33.7 µM | MOLT-4 > 100 µM | IGROV-1 > 100 µM | DU-145 > 100 µM | NCI-H522 50.5 µM | KM12 > 100 µM | CAKI-1 > 100 µM | LOX IMVI > 100 µM | SK-MEL-28 > 100 µM | SF-295 60 µM | RXF 393 > 100 µM | NCI-H23 71.9 µM | NCI-H460 48.2 µM | NCI-H226 99.5 µM | HOP-62 85.5 µM | UACC-62 41.3 µM | HL-60 > 100 µM | HCC 2998 94 µM

COc1ccc(N2C(=O)C3c4[nH]c5ccc(C)cc5c4C4CCC(C(C)C)CC4C3C2=O)cc1 (stereo not drawn)
inactive: TK-10 > 100 µM | PC-3 > 100 µM | MOLT-4 > 100 µM | IGROV-1 > 100 µM | A498 > 100 µM | DU-145 > 100 µM | NCI-H522 > 100 µM | KM12 > 100 µM | CAKI-1 > 100 µM | LOX IMVI > 100 µM | SK-MEL-28 > 100 µM | SF-295 > 100 µM | NCI-H23 > 100 µM | NCI-H460 > 100 µM | NCI-H226 > 100 µM | HOP-62 45.4 µM | UACC-62 > 100 µM | HCC 2998 > 100 µM

COc1ccc(N(C(=O)Nc2ccc(Cl)c(Cl)c2)C2c3cccn3C(=O)N2c2ccc(Cl)c(Cl)c2)cc1 (stereo not drawn)
inactive: TK-10 > 100 µM | PC-3 60.4 µM | MOLT-4 1.54 µM | IGROV-1 > 100 µM | A498 27.7 µM | DU-145 > 100 µM | KM12 30.5 µM | CAKI-1 26.9 µM | LOX IMVI 15.8 µM | SK-MEL-28 > 100 µM | SF-295 18.3 µM | RXF 393 > 100 µM | NCI-H23 92 µM | NCI-H460 24.9 µM | NCI-H226 > 100 µM | UACC-62 41.9 µM | HL-60 25.1 µM | HCC 2998 56.5 µM

COC(=O)C1=C(O)C(C(=O)OC)[C@]2(O)[C@H](C(=O)OC)[C@H]1C[C@@H](c1ccc([N+](=O)[O-])cc1)[C@H]2C(=O)OC (stereo partly drawn)
inactive: TK-10 74.1 µM | PC-3 13.9 µM | MOLT-4 8.09 µM | IGROV-1 12.8 µM | DU-145 34.7 µM | NCI-H522 2.46 µM | KM12 28 µM | CAKI-1 28.6 µM | LOX IMVI 13 µM | SK-MEL-28 16.2 µM | SF-295 28.5 µM | RXF 393 14.7 µM | NCI-H23 13.2 µM | NCI-H460 26.4 µM | NCI-H226 24.9 µM | HOP-62 34.6 µM | UACC-62 12.4 µM | HL-60 14.3 µM

CC1CC(C)C(C#N)N(C)c2ccccc21 (stereo not drawn)
inactive: TK-10 > 100 µM | PC-3 > 100 µM | MOLT-4 66.7 µM | IGROV-1 > 100 µM | A498 > 100 µM | DU-145 > 100 µM | KM12 > 100 µM | CAKI-1 > 100 µM | SK-MEL-28 > 100 µM | SF-295 > 100 µM | RXF 393 6.12 µM | NCI-H23 > 100 µM | NCI-H460 > 100 µM | NCI-H226 > 100 µM | HOP-62 > 100 µM | UACC-62 97.5 µM | HL-60 26.7 µM | HCC 2998 > 100 µM

O=C1Nc2ccccc2/C1=N\c1cccc2ncccc12
inactive: TK-10 > 100 µM | PC-3 > 100 µM | MOLT-4 30 µM | IGROV-1 51.1 µM | A498 > 100 µM | DU-145 > 100 µM | NCI-H522 28.1 µM | KM12 95.1 µM | CAKI-1 > 100 µM | LOX IMVI 27.4 µM | SK-MEL-28 > 100 µM | SF-295 53.3 µM | RXF 393 > 100 µM | NCI-H23 32.2 µM | NCI-H460 69.7 µM | NCI-H226 > 100 µM | HOP-62 46.5 µM | UACC-62 > 100 µM

CC(C)(C)c1ccccc1N1C(=O)c2ccc3c4c(ccc(c24)C1=O)N(c1ccccc1C(C)(C)C)C3=O
inactive: PC-3 20 µM | MOLT-4 5.46 µM | IGROV-1 > 100 µM | DU-145 > 100 µM | NCI-H522 5.07 µM | KM12 > 100 µM | CAKI-1 > 100 µM | SK-MEL-28 > 100 µM | SF-295 71.3 µM | RXF 393 > 100 µM | NCI-H23 > 100 µM | NCI-H460 > 100 µM | HOP-62 > 100 µM | UACC-62 > 100 µM | HCC 2998 > 100 µM

C/C(=C\CO)CC/C=C(\C)CNc1c(F)c(F)c(F)c(F)c1F
inactive: TK-10 29.5 µM | PC-3 21.1 µM | MOLT-4 29.6 µM | IGROV-1 49.5 µM | DU-145 43.6 µM | NCI-H522 18.4 µM | KM12 27.5 µM | CAKI-1 33.3 µM | LOX IMVI 29.2 µM | SK-MEL-28 20.5 µM | SF-295 22.4 µM | RXF 393 24.8 µM | NCI-H23 > 100 µM | NCI-H460 36.1 µM | NCI-H226 28.1 µM | HOP-62 24.7 µM | UACC-62 17.2 µM | HL-60 28.7 µM | HCC 2998 24.7 µM

CN(/N=C/C=N/N(C)C1=NCCN1)C1=NCCN1
inactive: TK-10 > 100 µM | PC-3 > 100 µM | MOLT-4 > 100 µM | IGROV-1 > 100 µM | DU-145 > 100 µM | NCI-H522 > 100 µM | KM12 > 100 µM | CAKI-1 > 100 µM | LOX IMVI > 100 µM | SK-MEL-28 > 100 µM | SF-295 > 100 µM | NCI-H23 > 100 µM | NCI-H460 > 100 µM | NCI-H226 > 100 µM | HOP-62 > 100 µM | UACC-62 > 100 µM | HCC 2998 > 100 µM

COc1ccccc1C(=O)NO
inactive: TK-10 > 100 µM | PC-3 > 100 µM | MOLT-4 > 100 µM | IGROV-1 > 100 µM | DU-145 > 100 µM | NCI-H522 49.1 µM | KM12 39.5 µM | CAKI-1 > 100 µM | LOX IMVI > 100 µM | SK-MEL-28 > 100 µM | SF-295 > 100 µM | RXF 393 > 100 µM | NCI-H23 > 100 µM | NCI-H460 62.7 µM | NCI-H226 > 100 µM | HOP-62 > 100 µM | UACC-62 > 100 µM | HL-60 > 100 µM | HCC 2998 > 100 µM

CCOC(=O)C(NC(=O)c1ccccc1)(Nc1ccc(S(=O)(=O)Nc2nc(C)cc(C)n2)cc1)C(F)(F)F (stereo not drawn)
inactive: TK-10 > 100 µM | PC-3 > 100 µM | MOLT-4 > 100 µM | IGROV-1 > 100 µM | DU-145 > 100 µM | KM12 > 100 µM | CAKI-1 > 100 µM | LOX IMVI > 100 µM | SK-MEL-28 > 100 µM | SF-295 > 100 µM | RXF 393 > 100 µM | NCI-H23 > 100 µM | NCI-H460 > 100 µM | NCI-H226 > 100 µM | HOP-62 > 100 µM | UACC-62 > 100 µM | HL-60 > 100 µM | HCC 2998 > 100 µM
